# Measured values reported in patent US20230017045A1, “PYRIDINE AND PYRIMIDINE CARBOXYLATE HERBICIDES AND METHODS OF USE THEREOF” (Dow AgroSciences LLC, priority 2017, published 2023).
# Test system: test plant species
# Experiment: Post-emergent herbicidal activity test (greenhouse, foliar spray, visual growth reduction)
# Assay type: in vivo
# Conditions: post-emergence, 336 h, ALOMY: blackgrass (Alopecurus myosuroides), 140 g ai/ha, 14 days after application, read-out: Visual Growth Reduction (%) 14 Days After Application, ALOMY
# Method: Post-emergent Test: Seeds or nutlets of the desired test plant species were planted in Sun Gro Metro-Mix® 360 planting mixture, which typically has a pH of 6.0 to 6.8 and an organic matter content of about 30 percent, in plastic pots with a surface area of 64 square centimeters. In some aspects, to ensure good germination and healthy plants, a fungicide treatment and/or other chemical or physical treatment was applied. The plants were grown for 7-21 d in a greenhouse with an approximate 15 h photoperiod which was maintained at 23-29° C. during the day and 22-28° C. during the night. Nutrients and water were added on a regular basis and supplemental lighting was provided with overhead metal halide 1000-Watt lamps as necessary. Plants were used for testing when they reached the first or second true leaf stage. A weighed amount, determined by the highest rate to be tested, of each test compound was placed in a 25 mL glass vial and was dissolved in 4 mL of a 97:3 v/v mixture of acetone and DMSO to obtain concentrated stock solutions. […] The concentrated stock solutions obtained were diluted with 20 mL of an aqueous mixture containing acetone, water, isopropyl alcohol, DMSO, […] crop oil concentrate, and X-77 surfactant in a 48.5:39:10:1.5:1.0:0.02 v/v ratio to obtain spray solutions containing the application rate. Compound requirements are based upon a 12 mL application volume at a rate of 187 liters per hectare (L/ha). Formulated compounds were applied to the plant material with an overhead Mandel track sprayer equipped with […] nozzles calibrated to deliver 187 L/ha over an application area of 0.64 square meters at a spray height of 18 inches (43 cm) above the average plant canopy height. Control plants were sprayed in the same manner with the solvent blank. The treated plants and control plants were placed in a greenhouse as described above and watered by subirrigation to prevent wash-off of the test compounds. After 14 d, the condition of the test plants as compared with that of the nontreated and control plants was determined visually and scored on a scale of 0 to 100 percent where 0 corresponds to no injury and 100 corresponds to complete control. In the reporting of the results, Table A: Percent Growth Reduction Conversion Table was used.
row,SMILES,pest or weed control at 140 g/ha
1,"COC(=O)c1nc(-c2ccc3c(c2F)OCO3)ccc1Cl [F85, Methyl 3-chloro-6-(4-fluorobenzo[d][1,3]dioxol-5-yl)picolinate]",0 to 29%
2,"COC(=O)c1nc(-c2ccc(C(F)(F)F)c(F)c2F)ccc1Cl [F110, Methyl 3-chloro-6-(2,3-difluoro-4-(trifluoromethyl)phenyl)picolinate]",0 to 29%

# Same assay, conditions: post-emergence, 336 h, AMARE: redroot pigweed (Amaranthus retroflexus), 140 g ai/ha, 14 days after application, read-out: Visual Growth Reduction (%) 14 Days After Application, AMARE
row,SMILES,pest or weed control at 140 g/ha
1,"COC(=O)c1nc(-c2ccc3c(c2F)OCO3)ccc1Cl [F85, Methyl 3-chloro-6-(4-fluorobenzo[d][1,3]dioxol-5-yl)picolinate]",0 to 29%
2,"COC(=O)c1nc(-c2ccc(C(F)(F)F)c(F)c2F)ccc1Cl [F110, Methyl 3-chloro-6-(2,3-difluoro-4-(trifluoromethyl)phenyl)picolinate]",85 to 94%

# Same assay, conditions: post-emergence, 336 h, AVEFA: wild oat (Avena fatua), 140 g ai/ha, 14 days after application, read-out: Visual Growth Reduction (%) 14 Days After Application, AVEFA
row,SMILES,pest or weed control at 140 g/ha
1,"COC(=O)c1nc(-c2ccc3c(c2F)OCO3)ccc1Cl [F85, Methyl 3-chloro-6-(4-fluorobenzo[d][1,3]dioxol-5-yl)picolinate]",0 to 29%
2,"COC(=O)c1nc(-c2ccc(C(F)(F)F)c(F)c2F)ccc1Cl [F110, Methyl 3-chloro-6-(2,3-difluoro-4-(trifluoromethyl)phenyl)picolinate]",0 to 29%

# Same assay, conditions: post-emergence, 336 h, CHEAL: lambsquarters (Chenopodium album), 140 g ai/ha, 14 days after application, read-out: Visual Growth Reduction (%) 14 Days After Application, CHEAL
row,SMILES,pest or weed control at 140 g/ha
1,"COC(=O)c1nc(-c2ccc3c(c2F)OCO3)ccc1Cl [F85, Methyl 3-chloro-6-(4-fluorobenzo[d][1,3]dioxol-5-yl)picolinate]",75 to 84%
2,"COC(=O)c1nc(-c2ccc(C(F)(F)F)c(F)c2F)ccc1Cl [F110, Methyl 3-chloro-6-(2,3-difluoro-4-(trifluoromethyl)phenyl)picolinate]",75 to 84%

# Same assay, conditions: post-emergence, 336 h, CIRAR: canada thistle (Cirsium arvense), 140 g ai/ha, 14 days after application, read-out: Visual Growth Reduction (%) 14 Days After Application, CIRAR
row,SMILES,pest or weed control at 140 g/ha
1,"COC(=O)c1nc(-c2ccc3c(c2F)OCO3)ccc1Cl [F85, Methyl 3-chloro-6-(4-fluorobenzo[d][1,3]dioxol-5-yl)picolinate]",0 to 29%
2,"COC(=O)c1nc(-c2ccc(C(F)(F)F)c(F)c2F)ccc1Cl [F110, Methyl 3-chloro-6-(2,3-difluoro-4-(trifluoromethyl)phenyl)picolinate]",85 to 94%

# Same assay, conditions: post-emergence, 336 h, CYPES: yellow nutsedge (Cyperus esculentus), 140 g ai/ha, 14 days after application, read-out: Visual Growth Reduction (%) 14 Days After Application, CYPES
row,SMILES,pest or weed control at 140 g/ha
1,"COC(=O)c1nc(-c2ccc3c(c2F)OCO3)ccc1Cl [F85, Methyl 3-chloro-6-(4-fluorobenzo[d][1,3]dioxol-5-yl)picolinate]",0 to 29%
2,"COC(=O)c1nc(-c2ccc(C(F)(F)F)c(F)c2F)ccc1Cl [F110, Methyl 3-chloro-6-(2,3-difluoro-4-(trifluoromethyl)phenyl)picolinate]",0 to 29%

# Same assay, conditions: post-emergence, 336 h, DIGSA: crabgrass (Digitaria sanguinalis), 140 g ai/ha, 14 days after application, read-out: Visual Growth Reduction (%) 14 Days After Application, DIGSA
row,SMILES,pest or weed control at 140 g/ha
1,"COC(=O)c1nc(-c2ccc3c(c2F)OCO3)ccc1Cl [F85, Methyl 3-chloro-6-(4-fluorobenzo[d][1,3]dioxol-5-yl)picolinate]",0 to 29%
2,"COC(=O)c1nc(-c2ccc(C(F)(F)F)c(F)c2F)ccc1Cl [F110, Methyl 3-chloro-6-(2,3-difluoro-4-(trifluoromethyl)phenyl)picolinate]",0 to 29%

# Same assay, conditions: post-emergence, 336 h, ECHCG: barnyardgrass (Echinochloa crus-galli), 140 g ai/ha, 14 days after application, read-out: Visual Growth Reduction (%) 14 Days After Application, ECHCG
row,SMILES,pest or weed control at 140 g/ha
1,"COC(=O)c1nc(-c2ccc3c(c2F)OCO3)ccc1Cl [F85, Methyl 3-chloro-6-(4-fluorobenzo[d][1,3]dioxol-5-yl)picolinate]",30 to 44%
2,"COC(=O)c1nc(-c2ccc(C(F)(F)F)c(F)c2F)ccc1Cl [F110, Methyl 3-chloro-6-(2,3-difluoro-4-(trifluoromethyl)phenyl)picolinate]",0 to 29%

# Same assay, conditions: post-emergence, 336 h, IPOHE: ivy-leaf morning glory (Ipomoea hederacea), 140 g ai/ha, 14 days after application, read-out: Visual Growth Reduction (%) 14 Days After Application, IPOHE
row,SMILES,pest or weed control at 140 g/ha
1,"COC(=O)c1nc(-c2ccc3c(c2F)OCO3)ccc1Cl [F85, Methyl 3-chloro-6-(4-fluorobenzo[d][1,3]dioxol-5-yl)picolinate]",0 to 29%
2,"COC(=O)c1nc(-c2ccc(C(F)(F)F)c(F)c2F)ccc1Cl [F110, Methyl 3-chloro-6-(2,3-difluoro-4-(trifluoromethyl)phenyl)picolinate]",95 to 100%

# Same assay, conditions: post-emergence, 336 h, KCHSC: kochia (Bassia scoparia), 140 g ai/ha, 14 days after application, read-out: Visual Growth Reduction (%) 14 Days After Application, KCHSC
row,SMILES,pest or weed control at 140 g/ha
1,"COC(=O)c1nc(-c2ccc3c(c2F)OCO3)ccc1Cl [F85, Methyl 3-chloro-6-(4-fluorobenzo[d][1,3]dioxol-5-yl)picolinate]",45 to 59%
2,"COC(=O)c1nc(-c2ccc(C(F)(F)F)c(F)c2F)ccc1Cl [F110, Methyl 3-chloro-6-(2,3-difluoro-4-(trifluoromethyl)phenyl)picolinate]",0 to 29%

# Same assay, conditions: post-emergence, 336 h, ORYSA: rice (Oryza sativa), 140 g ai/ha, 14 days after application, read-out: Visual Growth Reduction (%) 14 Days After Application, ORYSA
row,SMILES,pest or weed control at 140 g/ha
1,"COC(=O)c1nc(-c2ccc3c(c2F)OCO3)ccc1Cl [F85, Methyl 3-chloro-6-(4-fluorobenzo[d][1,3]dioxol-5-yl)picolinate]",0 to 29%
2,"COC(=O)c1nc(-c2ccc(C(F)(F)F)c(F)c2F)ccc1Cl [F110, Methyl 3-chloro-6-(2,3-difluoro-4-(trifluoromethyl)phenyl)picolinate]",0 to 29%

# Same assay, conditions: post-emergence, 336 h, SETFA: giant foxtail (Setaria faberi), 140 g ai/ha, 14 days after application, read-out: Visual Growth Reduction (%) 14 Days After Application, SETFA
row,SMILES,pest or weed control at 140 g/ha
1,"COC(=O)c1nc(-c2ccc3c(c2F)OCO3)ccc1Cl [F85, Methyl 3-chloro-6-(4-fluorobenzo[d][1,3]dioxol-5-yl)picolinate]",0 to 29%
2,"COC(=O)c1nc(-c2ccc(C(F)(F)F)c(F)c2F)ccc1Cl [F110, Methyl 3-chloro-6-(2,3-difluoro-4-(trifluoromethyl)phenyl)picolinate]",0 to 29%

# Same assay, conditions: post-emergence, 336 h, SORVU: grain sorghum (Sorghum vulgare), 140 g ai/ha, 14 days after application, read-out: Visual Growth Reduction (%) 14 Days After Application, SORVU
row,SMILES,pest or weed control at 140 g/ha
1,"COC(=O)c1nc(-c2ccc3c(c2F)OCO3)ccc1Cl [F85, Methyl 3-chloro-6-(4-fluorobenzo[d][1,3]dioxol-5-yl)picolinate]",0 to 29%
2,"COC(=O)c1nc(-c2ccc(C(F)(F)F)c(F)c2F)ccc1Cl [F110, Methyl 3-chloro-6-(2,3-difluoro-4-(trifluoromethyl)phenyl)picolinate]",60 to 74%

# Same assay, conditions: post-emergence, 336 h, STEME: common chickweed (Stellaria media), 140 g ai/ha, 14 days after application, read-out: Visual Growth Reduction (%) 14 Days After Application, STEME
row,SMILES,pest or weed control at 140 g/ha
1,"COC(=O)c1nc(-c2ccc3c(c2F)OCO3)ccc1Cl [F85, Methyl 3-chloro-6-(4-fluorobenzo[d][1,3]dioxol-5-yl)picolinate]",0 to 29%

# Same assay, conditions: post-emergence, 336 h, TRZAS: wheat, spring (Triticum aestivum), 140 g ai/ha, 14 days after application, read-out: Visual Growth Reduction (%) 14 Days After Application, TRZAS
row,SMILES,pest or weed control at 140 g/ha
1,"COC(=O)c1nc(-c2ccc3c(c2F)OCO3)ccc1Cl [F85, Methyl 3-chloro-6-(4-fluorobenzo[d][1,3]dioxol-5-yl)picolinate]",0 to 29%
2,"COC(=O)c1nc(-c2ccc(C(F)(F)F)c(F)c2F)ccc1Cl [F110, Methyl 3-chloro-6-(2,3-difluoro-4-(trifluoromethyl)phenyl)picolinate]",0 to 29%
